Test results as given in patent US20250282757A1, “ARYL ETHER-SUBSTITUTED HETEROCYCLIC COMPOUNDS AS GLP1R AGONISTS” (MINDRANK AI LTD., priority 2021, published 2025).

Biological target: GLP-1R (Homo sapiens, UniProt P43220)
Assay: Agonist activity on GLP-1R, HTRF cAMP detection in stably transfected GLP-1R/HEK293 cells
Assay type: cell-based
Conditions: for EC50: 30 min incubation; for Max activity: relative to top concentration of reference GLP-1(7-37)
Description: Detection of Agonist Activity of the Test Compounds on GLP-1R
• 1) The test compound was dissolved in DMSO and diluted 4-fold with Bravo for a total of 10 concentration gradients (the starting concentration was 1 mM). […] HBSS (10 mL) pre-warmed at 37° C. was added, mixed gently, and centrifuged at 1000 rpm for 5 minutes. The supernatant was discarded and another 10 mL of […] was added and mixed gently. […] The plate was shaken to mix at 2000 rpm for 60 seconds. • 7) The cells in the 384-well plate were incubated in CO2 cell incubator at 37° C. for 30 min. • 8) 10 μL of HTRF cAMP detection solution was added to the 384-well plate, stick with sealing film, and incubated at room temperature for 1 hour. • 9) After 1 hour of incubation, the sealing film was removed. The plate was put into the EnVision microplate reader to read the values of OD665 nm and OD615 nm.

Sequence of GLP-1R (P43220 24-463): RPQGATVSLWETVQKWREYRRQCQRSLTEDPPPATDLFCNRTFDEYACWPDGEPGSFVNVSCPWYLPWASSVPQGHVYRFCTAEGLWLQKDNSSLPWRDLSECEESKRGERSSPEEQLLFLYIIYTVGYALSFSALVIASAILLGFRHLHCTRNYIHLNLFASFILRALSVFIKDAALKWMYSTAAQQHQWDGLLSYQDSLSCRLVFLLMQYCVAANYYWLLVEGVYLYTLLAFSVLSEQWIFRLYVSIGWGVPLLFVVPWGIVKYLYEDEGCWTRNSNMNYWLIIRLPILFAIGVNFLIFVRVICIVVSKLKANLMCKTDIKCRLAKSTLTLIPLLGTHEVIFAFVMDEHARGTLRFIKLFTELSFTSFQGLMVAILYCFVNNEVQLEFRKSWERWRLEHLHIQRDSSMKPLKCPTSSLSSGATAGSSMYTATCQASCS

Compound	EC50 [nM]	Max activity [%]
N#CCC1(Cn2c(CN3CCC(Oc4cccc(CSc5ccc(Cl)cc5F)n4)CC3)nc3ccc(C(=O)O)cc32)CC1 [Compound C7, 2-((4-((6-((4-chloro-2-fluorophenylthio)methyl)pyridin-2-yl)oxy)piperidin-1-yl)methyl)-1-((1-(cyanomethyl)cyclopropyl)methyl)-1H-benzo[d]imidazole-6-carboxylic acid]	23.5	90.1
N#Cc1ccc(OCc2cccc(COC3CCN(Cc4nc5ccc(C(=O)O)cc5n4C[C@@H]4CCO4)CC3)n2)c(F)c1 [Compound C1, (S)-2-((4-((6-((4-cyano-2-fluorophenoxy)methyl)pyridin-2-yl)methoxy)piperidin-1-yl)methyl)-1-(oxetan-2-ylmethyl)-1H-benzo[d]imidazole-6-carboxylic acid]	1190	76.6
N#CCC1(Cn2c(CN3CCC(Oc4cccc(COc5ccc(C#N)cc5F)n4)CC3)nc3c(F)cc(C(=O)O)cc32)CC1 [Compound 134, 2-((4-((6-((4-cyano-2-fluorophenoxy)methyl)pyridin-2-yl)oxy)piperidin-1-yl)methyl)-1-((1-(cyanomethyl)cyclopropyl)methyl)-4-fluoro-1H-benzimidazole-6-carboxylic acid]	0.133	117.3
Glucagon-like peptide-1 [GLP-1(7-37), reference compound]		98.1
CCn1cncc1Cn1c(CN2CCC(Oc3cccc(COc4ccc(C#N)cc4F)n3)CC2)nc2ccc(C(=O)O)nc21 [Compound 6, 2-((4-((6-((4-cyano-2-fluorophenoxy)methyl)pyridin-2-yl)oxy)piperidin-1-yl)methyl)-3-((1-ethyl-1H-imidazol-5-yl)methyl)-3H-imidazo[4,5-b]pyridine-5-carboxylic acid]	0.133	114.8
N#CCC1(Cn2c(CN3CCC(Oc4ccc(F)c(COc5ccc(C#N)cc5F)n4)CC3)nc3ccc(C(=O)O)cc32)CC1 [Compound 135, 2-((4-((6-((4-cyano-2-fluorophenoxy)methyl)-5-fluoropyridin-2-yl)oxy)piperidin-1-yl)methyl)-1-((1-(cyanomethyl)cyclopropyl)methyl)-1H-benzo[d]imidazole-6-carboxylic acid]	0.244	109.6
Cc1ncc(Cn2c(CN3CCC(Oc4cccc(COc5ccc(C#N)cc5F)n4)CC3)nc3ccc(C(=O)O)cc32)n1C [Compound C6, 2-((4-((6-((4-cyano-2-fluorophenoxy)methyl)pyridin-2-yl)oxy)piperidin-1-yl)methyl)-1-((1,2-dimethyl-1H-imidazol-5-yl)methyl)-1H-benzo[d]imidazole-6-carboxylic acid]	13.8	99.8
CCn1cncc1Cn1c(CN2CCC(Oc3ccc(F)c(COc4ccc(C#N)cc4F)n3)CC2)nc2ccc(C(=O)O)cc21 [Compound 3, 2-((4-((6-((4-cyano-2-fluorophenoxy)methyl)-5-fluoropyridin-2-yl)oxy)piperidin-1-yl)methyl)-1-((1-ethyl-1H-imidazol-5-yl)methyl)-1H benzo[d]imidazole-6-carboxylic acid]	0.317	128.3

Further lines, results first:

EC50 [nM]	Max activity [%]	Compound
0.246	136.4	N#CCC1(Cn2c(CN3CCC(Oc4cccc(COc5ccc(Cl)cc5F)n4)CC3)nc3ccc(C(=O)O)cc32)CC1 [Compound C84, 2-((4-((6-((4-chloro-2-fluorophenoxy)methyl)pyridin-2-yl)oxy)piperidin-1-yl)methyl)-1-((1-(cyanomethyl)cyclopropyl)methyl)-1H-benzo[d]imidazole-6-carboxylic acid]
0.215	117.3	N#CCC1(Cn2c(CN3CCC(Oc4cccc(COc5ccc(Br)cc5F)n4)CC3)nc3ccc(C(=O)O)cc32)CC1 [Compound C26, 2-((4-((6-((4-bromo-2-fluorophenoxy)methyl)pyridin-2-yl)oxy)piperidin-1-yl)methyl)-1-((1-(cyanomethyl)cyclopropyl)methyl)-1H-benzo[d]imidazole-6-carboxylic acid]
0.315	101.9	C#Cc1ccc(OCc2cccc(OC3CCN(Cc4nc5ccc(C(=O)O)cc5n4Cc4cncn4CC)CC3)n2)c(F)c1 [Compound C14]
0.705	111.1	N#Cc1ccc(OCc2nc(OC3CCN(Cc4nc5ccc(C(=O)O)cc5n4C[C@@H]4CCO4)CC3)ccc2F)c(F)c1 [Compound C83, (S)-2-((4-((6-((4-cyano-2-fluorophenoxy)methyl)-5-fluoropyridin-2-yl)oxy)piperidin-1-yl)methyl)-1-(oxetan-2-ylmethyl)-1H-benzo[d]imidazole-6-carboxylic acid]
0.962	129.1	N#CCC1(Cn2c(CN3CCC(Oc4cccc(OCc5ccc(C#N)cc5F)n4)CC3)nc3c(F)cc(C(=O)O)cc32)CC1 [Compound S20]
0.068	99.1	N#Cc1ccc(OCc2cccc(OC3CCN(Cc4nc5ccc(C(=O)O)cc5n4Cc4cncn4CC4CC4)CC3)n2)c(F)c1 [Compound C33, 2-((4-((6-((4-cyano-2-fluorophenoxy)methyl)pyridin-2-yl)oxy)piperidin-1-yl)methyl)-1-((1-(cyclopropylmethyl)-1H-imidazol-5-yl)methyl)-1H-benzo[d]imidazole-6-carboxylic acid]
5.58	139.9	N#Cc1ccc(COc2cccc(OC3CCN(Cc4nc5ccc(C(=O)O)cc5n4C[C@@H]4CCO4)CC3)n2)c(F)c1 [Compound S2, (S)-2-((4-((6-((4-cyano-2-fluorobenzyl)oxy)pyridin-2-yl)oxy)piperidin-1-yl)methyl)-1-(oxetan-2-ylmethyl)-1H-benzo[d]imidazole-6-carboxylic acid]
0.29	106.9	CCn1cncc1Cn1c(CN2CCC(Oc3cccc(OCc4ccc(C#N)cc4F)n3)CC2)nc2ccc(C(=O)O)cc21 [Compound S4, 2-((4-((6-((4-cyano-2-fluorobenzyl)oxy)pyridin-2-yl)oxy)piperidin-1-yl)methyl)-1-((1-ethyl-1H-imidazol-5-yl)methyl)-1H-benzo[d]imidazole-6-carboxylic acid]
5.05		CCn1cncc1Cn1c(Cc2ccc(Oc3cccc(COc4ccc(C#N)cc4F)n3)cc2)nc2ccc(C(=O)O)cc21 [Compound C28, 2-(4-((6-((4-cyano-2-fluorophenoxy)methyl)pyridin-2-yl)oxy)benzyl)-1-((1-ethyl-1H-imidazol-5-yl)methyl)-1H-benzo[d]imidazole-6-carboxylic acid]
6.5	90.7	CCn1nc(C)cc1Cn1c(CN2CCC(Oc3cccc(COc4ccc(C#N)cc4F)n3)CC2)nc2ccc(C(=O)O)cc21 [Compound C40, 2-((4-((6-((4-cyano-2-fluorophenoxy)methyl)pyridin-2-yl)oxy)piperidin-1-yl)methyl)-1-((1-ethyl-3-methyl-1H-pyrazol-5-yl)methyl)-1H-benzo[d]imidazole-6-carboxylic acid]
> 100		CCn1cncc1Cn1c(CN2CCN(Cc3cccc(COc4ccc(C#N)cc4F)n3)CC2)nc2ccc(C(=O)O)cc21 [Compound C38, 2-((4-((6-((4-cyano-2-fluorophenoxy)methyl)pyridin-2-yl)methyl)piperazin-1-yl)methyl)-1-((1-ethyl-1H-imidazol-5-yl)methyl)-1H-benzo[d]imidazole-6-carboxylic acid]
